# Paper PMC6627331, “Identification of Small Molecule Inhibitors of Staphylococcus aureus RnpA” (Antibiotics, 2019)
# Like-named read-outs stand apart in the source and are kept apart here.
# What was measured:
# [1] = JC2 stability (degradation test) in Mueller Hinton broth by HPLC; type: physicochemical; details: 37 °C, read-out: half-life in Mueller Hinton media (MH t1/2) (converted)
# Experimental: Degradation test: Blank sample was prepared with 20 µL Mueller Hinton broth (BD biosciences, US) diluted in 180 µL of 2 % DMSO in 1:1 (v/v) acetonitrile : water solution, and directly submitted to HPLC for evaluation. A 5 mM JC2 stock solution was prepared by diluting the 25 mM stock solution with DMSO. 4 µL of 5 mM […] solution was added into 196 µL of MH, and incubated at 37 °C for the whole course of evaluation. 20 µL of each incubated sample was taken at 0, 0.5, 1, 2, 4, 8, 16 hr, and were prepared in the same manner as the blank sample before submitting to HPLC.
# Chromatography was performed on an Agilent 1200 series HPLC system that equipped with a vacuum degasser, a quaternary pump, a diode array and multiple wavelength detector SL, and a standard and preparative autosampler (Agilent Technologies, US). A Hyspersil GOLD^TM C-18 4.6 x 250 mm, 3 µm column was used for separation. A gradient elution method was used as the mobile phase by mixing solvent A (water, 0.1% formic Acid) and solvent B (acetonitrile, 0.1% formic acid). The time program for gradient elution is shown in Table A. The flow rate was set at 1.0 ml/min, and 20µl of sample was injected each time. The detector monitored absorption at 254, 215, 280 nm.
# Chemstation Offline (Agilent Technologies, US) was used to analyze the data. […]
# S. aureus UAMS-1 = assay: Minimum inhibitory concentration (MIC) testing; type: cell-based, Staphylococcus aureus
# Experimental: Minimum inhibitory concentration (MIC) testing was performed using to Clinical & Laboratory Standards Institute (CLSI) guidelines. Accordingly, individual wells of a 96-well microtiter plate were inoculated with 10^4 colony forming units (CFU) of S. aureus UAMS-1 containing two-fold increasing concentrations (0 to 256 μg·mL^−1) of the indicated antibiotic or putative RnpA inhibitor compound, and incubated at 37 °C for 16 h in MHB. The MIC was defined as the lowest concentration of compound in which there was no visible bacterial growth in the well.
# S. aureus RnpA = target: T1, S. aureus RnpA (Staphylococcus aureus, UniProt P0A0H5); assay: RnpA-mediated in vitro spa mRNA degradation assay; type: biochemical; details: read-out: Degradation IC50
# T1 construct: hexahistidine (His6) (N); made in house; host or cells: E. coli BL21 (DE3), plasmid pEXP5-nt
# T1 sequence (P0A0H5 1-117): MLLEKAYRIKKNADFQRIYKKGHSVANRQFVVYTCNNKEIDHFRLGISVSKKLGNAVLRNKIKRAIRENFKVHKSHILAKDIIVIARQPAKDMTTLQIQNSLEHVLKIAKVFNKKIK
# Experimental: RnpA-mediated RNA degradation assays were performed as previously described. Briefly, 1 pmol of spa mRNA was incubated with 5 pmol RnpA at 37 °C for 30 min in reaction buffer (50 mM Tris-HCl pH 8.0, 2 mM NaCl, 2 mM MgCl2) in the absence or presence of the indicated compound (≤500 µM). The inhibitory effects of the test compounds were calculated using Biorad ImageLab densitometry software to measure the signal intensity of the spa band in the negative control (spa alone), positive control (RnpA + spa + DMSO), and experimental samples (RnpA + spa + test compound) separated on a 1.2% formaldehyde-agarose gel. Background signal from the positive control sample sometimes resulted due to incomplete degradation of transcripts. Thus, the signal intensity of the positive control was taken into account when calculating the percent inhibition. The raw signals from the positive (+RnpA) and negative (-RnpA) controls were converted into percentage, by normalizing the positive control (+RnpA) signal to 0% RnpA inhibition and the negative control (-RnpA) to 100% RnpA inhibition. Similarly, the raw signals from the test compounds were reported as percent RnpA inhibition using the following equation: [(experimental−positive control)/(negative control−positive control)] × 100. […] To assess IC50, % RnpA degradation inhibition was plotted against compound concentration; a linear best fit equation was generated and utilized to calculate the IC50.
# [2] = test system: all cellular mRNA species of S. aureus UAMS-1; assay: Global cellular mRNA turnover (Affymetrix GeneChip); type: cell-based, Staphylococcus aureus; details: 0.5× MIC; mock (DMSO) 84.8%
# Experimental: S. aureus mRNA half-life determinations were performed as previously described. […] Rifampin (Sigma-Aldrich) was added to the culture at a final concentration of 200 μg·mL^−1 to inhibit de novo transcript synthesis. Half of the culture was immediately removed and combined with an equal volume of ice cold acetone:ethanol (1:1 v/v). The remaining culture was returned to the shaking 37 °C incubator for an additional 5 min and then subsequently combined with an equal volume of ice cold acetone:ethanol (1:1 v/v) and stored at −80 °C until processing, as described below.
# Briefly, following the manufacturer’s instructions for prokaryotic arrays, reverse transcription was carried out on 10 µg of total bacterial RNA and control eukaryotic poly(A) RNA (Affymetrix). […] Transcript signal intensity values were read using the Affymetrix GeneChip® Scanner, and intensity values for each ORF and intergenic region were averaged among the biological replicates (n ≥ 2). Signals were normalized to the control poly(A) cDNA intensity values using GeneSpring 7.2 software (Agilent Technologies, Redwood City, CA, USA) and the number of transcripts with a decrease in transcript signal of >2-fold were determined.
# S. aureus BAA-1708 = assay: MIC against clinical strain BAA-1708; type: cell-based, Staphylococcus aureus; details: S. aureus clinical strain BAA-1708
# [3] = test system: S. aureus strain UAMS-1, USA300 or BAA-1708; assay: Selection of spontaneous resistant cells in liquid culture; type: cell-based, Staphylococcus aureus; details: 24 h incubation in liquid culture, 2× MIC
# S. aureus USA300 = assay: MIC against clinical strain USA300; type: cell-based, Staphylococcus aureus
# E. coli = assay: Antimicrobial activity toward E. coli; type: cell-based, Escherichia coli
smiles,measurement,setting,value
CC1CCCCN1C(=O)Nc1cc(Cl)cc(Cl)c1 (stereo not drawn) [JC2],half-life at 100 µM,[1],~2 h
same,MIC,"S. aureus UAMS-1; S. aureus UAMS-1, 16 h in MHB, listed as 9049625",1 µg/mL
same,MIC,"S. aureus UAMS-1; Staphylococcus aureus, UAMS1, 16 h, Table S1, mupirocin synergy screening initial hits, read-out: MIC",1 µg/mL
same,MIC,"S. aureus UAMS-1; Staphylococcus aureus, UAMS1, SAR figures, S. aureus UAMS-1, read-out: MIC",0.5 µg/mL
same,IC50,S. aureus RnpA,180 µM
same,transcript species with a half-life of ≤5 min,[2],51.6%
same,MIC,S. aureus BAA-1708,1 µg/mL
same,MIC,"S. aureus BAA-1708; Staphylococcus aureus, BAA1708, read-out: MIC",1 µg/mL
same,selection of spontaneous resistant cells,[3],unable to select for spontaneous JC2 resistant
same,MIC,S. aureus USA300,0.5 µg/mL
same,MIC,"S. aureus USA300; Staphylococcus aureus, read-out: MIC",0.5 µg/mL
same,antimicrobial activity toward E. coli,E. coli,did not shown antimicrobial activity
